Experiments:
[1] = target: GDP-bound NRAS wild-type protein (Homo sapiens, UniProt P01111); experiment: Binding to NRAS by surface plasmon resonance (SPR), Single Cycle Kinetics; details: SPR; KD ratio class
[2] = target: GDP-bound HRAS wild-type protein (Homo sapiens, UniProt P01112); experiment: Binding to HRAS by surface plasmon resonance (SPR), Single Cycle Kinetics; details: SPR; KD ratio class
[3] = system: human lung cancer strain NCI-H441; experiment: cells; details: NCI-H441, 96 h, read-out: NCI-H441 IC50 (nM)

GDP-bound HRAS wild-type protein, sequence (P01112 whole entry): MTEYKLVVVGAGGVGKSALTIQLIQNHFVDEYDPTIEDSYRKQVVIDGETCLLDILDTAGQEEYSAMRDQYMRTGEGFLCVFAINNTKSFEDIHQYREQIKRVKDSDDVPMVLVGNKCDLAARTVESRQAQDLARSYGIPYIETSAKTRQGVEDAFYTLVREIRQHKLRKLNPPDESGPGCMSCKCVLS
GDP-bound NRAS wild-type protein, sequence (P01111 whole entry): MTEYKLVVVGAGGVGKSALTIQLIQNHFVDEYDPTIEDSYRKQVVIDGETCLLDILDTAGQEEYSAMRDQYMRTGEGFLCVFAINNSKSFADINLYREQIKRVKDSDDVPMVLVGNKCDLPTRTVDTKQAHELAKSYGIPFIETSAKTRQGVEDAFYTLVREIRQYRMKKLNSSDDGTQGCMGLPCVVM

SMILES | NRAS/KRAS (ratio of KD value for GDP-bound NRAS wild-type protein to KD value for KRAS) [1] | HRAS/KRAS (ratio of KD value for GDP-bound HRAS wild-type protein to KD value for KRAS) [2] | IC50 [3]
CC[C@H](C)[C@@H]1NC(=O)[C@H](CC2CC2)N(C)C(=O)C[C@@H](C(=O)N(C)C)N(C)C(=O)[C@H](C2CCCC2)N(C)C(=O)C2(CCCC2)NC(=O)[C@@H]2CCCN2C(=O)[C@H](CCc2ccc(C(F)(F)F)c(Cl)c2)NC(=O)CN(C)C(=O)[C@H](Cc2ccc(C(F)(F)F)cc2)N2C[C@H](C)CC[C@@H](C2=O)N(C)C(=O)CN(C)C1=O [PP1346] | B (a compound having 3 or more and less than 10 is denoted as B) | B (a compound having 3 or more and less than 10 is denoted as B) | 7.2 nM
CCO[C@@H]1C[C@H]2C(=O)NC3(CCCC3)C(=O)N(C)[C@@H](C3CCCC3)C(=O)N(C)[C@H](C(=O)N(C)C)CC(=O)N(C)[C@@H](CC)C(=O)N[C@@H]([C@@H](C)CC)C(=O)N(C)CC(=O)N(C)[C@H]3C[C@H](C)C(C)CN(C3=O)[C@@H](Cc3ccc(C(F)(F)F)cc3)C(=O)N(C)CC(=O)N[C@@H](CCc3cc(F)c(C(F)(F)F)c(F)c3)C(=O)N2C1 (stereo partly drawn) [PP1347] | B (a compound having 3 or more and less than 10 is denoted as B) | B (a compound having 3 or more and less than 10 is denoted as B) | 3.6 nM
CCO[C@@H]1C[C@H]2C(=O)NC3(CCCC3)C(=O)N(C)[C@@H](C3CCCC3)C(=O)N(C)[C@H](C(=O)N3CCOCC3)CC(=O)N(C)[C@@H](CC)C(=O)N[C@@H]([C@@H](C)CC)C(=O)N(C)CC(=O)N(C)[C@H]3C[C@H](C)C(C)CN(C3=O)[C@@H](Cc3ccc(C(F)(F)F)cc3)C(=O)N(C)CC(=O)N[C@@H](CCc3cc(F)c(C(F)(F)F)c(F)c3)C(=O)N2C1 (stereo partly drawn) [PP1348] | B (a compound having 3 or more and less than 10 is denoted as B) | B (a compound having 3 or more and less than 10 is denoted as B) | 8.7 nM
CC[C@H](C)[C@@H]1NC(=O)[C@H](CC)N(C)C(=O)C[C@@H](C(=O)N(C)C)N(C)C(=O)[C@H](C2CCCC2)N(C)C(=O)C2(CCCC2)NC(=O)[C@@H]2CCCN2C(=O)[C@H](CCc2cc(F)c(C(F)(F)F)c(F)c2)NC(=O)CN(C)C(=O)[C@H](Cc2ccc(C(F)(F)F)cc2)N2CC(C)[C@@H](C)C[C@@H](C2=O)N(C)C(=O)CN(C)C1=O (stereo partly drawn) [PP1349] | C (A compound having a KD ratio of 0.1 or more and less than 3 is denoted as C) | B (a compound having 3 or more and less than 10 is denoted as B) | 14.7 nM
CC[C@H](C)[C@@H]1NC(=O)[C@H](CC)N(C)C(=O)C[C@@H](C(=O)N2CCOCC2)N(C)C(=O)[C@H](C2CCCC2)N(C)C(=O)C2(CCCC2)NC(=O)[C@@H]2CCCN2C(=O)[C@H](CCc2cc(F)c(C(F)(F)F)c(F)c2)NC(=O)CN(C)C(=O)[C@H](Cc2ccc(C(F)(F)F)cc2)N2CC(C)[C@@H](C)C[C@@H](C2=O)N(C)C(=O)CN(C)C1=O (stereo partly drawn) [PP1350] | B (a compound having 3 or more and less than 10 is denoted as B) | B (a compound having 3 or more and less than 10 is denoted as B) | 20.1 nM
CCO[C@@H]1C[C@H]2C(=O)NC3(CCC3)C(=O)N(C)[C@@H](C3CCCC3)C(=O)N(C)[C@H](C(=O)N3CCOCC3)CC(=O)N(C)[C@@H](CC)C(=O)N[C@@H]([C@@H](C)CC)C(=O)N3CC[C@H]3C(=O)N(C)[C@H]3C[C@@H](C)[C@@H](C)CN(C3=O)[C@@H](Cc3ccc(C(F)(F)F)cc3)C(=O)N(C)CC(=O)N[C@@H](CCc3cc(F)c(C(F)(F)F)c(F)c3)C(=O)N2C1 [PP1351] | A (a compound having 10 or more and less than 20 is denoted as A) | B (a compound having 3 or more and less than 10 is denoted as B) | 12.8 nM
CCO[C@@H]1C[C@H]2C(=O)NC3(CCCC3)C(=O)N(C)[C@@H](C3CCCC3)C(=O)N(C)[C@H](C(=O)N(C)C)CC(=O)N(C)[C@@H](CC)C(=O)N[C@@H]([C@@H](C)CC)C(=O)N(C)CC(=O)N(C)[C@H]3C[C@@H](C)[C@@H](C)CN(C3=O)[C@@H](Cc3ccc(C(F)(F)F)cc3)C(=O)N(C)CC(=O)N[C@@H](CCc3cc(F)c(C(F)(F)F)c(F)c3)C(=O)N2C1 [PP1352] | A (a compound having 10 or more and less than 20 is denoted as A) | B (a compound having 3 or more and less than 10 is denoted as B) | 4.6 nM
CCO[C@@H]1C[C@H]2C(=O)NC3(CCCC3)C(=O)N(C)[C@@H](C3CCCC3)C(=O)N(C)[C@H](C(=O)N3CCOCC3)CC(=O)N(C)[C@@H](CC)C(=O)N[C@@H]([C@@H](C)CC)C(=O)N(C)CC(=O)N(C)[C@H]3C[C@@H](C)[C@@H](C)CN(C3=O)[C@@H](Cc3ccc(C(F)(F)F)cc3)C(=O)N(C)CC(=O)N[C@@H](CCc3cc(F)c(C(F)(F)F)c(F)c3)C(=O)N2C1 [PP1353] | A (a compound having 10 or more and less than 20 is denoted as A) | B (a compound having 3 or more and less than 10 is denoted as B) | 3.7 nM
CCO[C@@H]1C[C@H]2C(=O)NC3(CCC3)C(=O)N(C)[C@@H](C3CCCC3)C(=O)N(C)[C@H](C(=O)N3CCOCC3)CC(=O)N(C)[C@@H](CC)C(=O)N[C@@H]([C@@H](C)CC)C(=O)N(C)CC(=O)N(C)[C@H]3C[C@@H](C)[C@@H](C)CN(C3=O)[C@@H](Cc3ccc(C(F)(F)F)cc3)C(=O)N(C)CC(=O)N[C@@H](CCc3cc(F)c(C(F)(F)F)c(F)c3)C(=O)N2C1 [PP1354] | A (a compound having 10 or more and less than 20 is denoted as A) | B (a compound having 3 or more and less than 10 is denoted as B) | 3.6 nM
CCO[C@@H]1C[C@H]2C(=O)NC3(CCC3)C(=O)N(C)[C@@H](C3CCCC3)C(=O)N(C)[C@H](C(=O)N3CCOCC3)CC(=O)N(C)[C@@H](CC(C)C)C(=O)N[C@@H]([C@@H](C)CC)C(=O)N3CC[C@H]3C(=O)N(C)[C@H]3C[C@@H](C)[C@@H](C)CN(C3=O)[C@@H](Cc3ccc(C(F)(F)F)cc3)C(=O)N(C)CC(=O)N[C@@H](CCc3cc(F)c(C(F)(F)F)c(F)c3)C(=O)N2C1 [PP1355] | A (a compound having 10 or more and less than 20 is denoted as A) | B (a compound having 3 or more and less than 10 is denoted as B) | 10.2 nM
CCO[C@@H]1C[C@H]2C(=O)NC3(CCCC3)C(=O)N(C)[C@@H](C3CCCC3)C(=O)N(C)[C@H](C(=O)N(C)C)CC(=O)N(C)[C@@H](CC3CC3)C(=O)N[C@@H]([C@@H](C)CC)C(=O)N(C)CC(=O)N(C)[C@H]3C[C@@H](C)[C@@H](C)CN(C3=O)[C@@H](Cc3ccc(C(F)(F)F)cc3)C(=O)N(C)CC(=O)N[C@@H](CCc3cc(F)c(C(F)(F)F)c(F)c3)C(=O)N2C1 [PP1356] | B (a compound having 3 or more and less than 10 is denoted as B) | B (a compound having 3 or more and less than 10 is denoted as B) | 3.3 nM
CCO[C@@H]1C[C@H]2C(=O)NC3(CCC3)C(=O)N(C)[C@@H](C3CCCC3)C(=O)N(C)[C@H](C(=O)N3CCOCC3)CC(=O)N(C)[C@@H](CC)C(=O)N[C@@H]([C@@H](C)CC)C(=O)N3CC[C@H]3C(=O)N(C)[C@H]3C[C@@H](C)[C@@H](C)CN(C3=O)[C@@H](Cc3ccc(C(F)(F)F)cc3)C(=O)N(C)CC(=O)N[C@@H](CCc3ccc(C(F)(F)F)c(Cl)c3)C(=O)N2C1 [PP1357] | A (a compound having 10 or more and less than 20 is denoted as A) | B (a compound having 3 or more and less than 10 is denoted as B) | 5.4 nM
CCO[C@@H]1C[C@H]2C(=O)NC3(CCCC3)C(=O)N(C)[C@@H](C3CCCC3)C(=O)N(C)[C@H](C(=O)N(C)C)CC(=O)N(C)[C@@H](CC)C(=O)N[C@@H]([C@@H](C)CC)C(=O)N(C)CC(=O)N(C)[C@H]3C[C@@H](C)[C@@H](C)CN(C3=O)[C@@H](Cc3ccc(C(F)(F)F)cc3)C(=O)N(C)CC(=O)N[C@@H](CCc3ccc(C(F)(F)F)c(Cl)c3)C(=O)N2C1 [PP1358] | A (a compound having 10 or more and less than 20 is denoted as A) | B (a compound having 3 or more and less than 10 is denoted as B) | 4.1 nM
CCO[C@@H]1C[C@H]2C(=O)NC3(CCCC3)C(=O)N(C)[C@@H](C3CCCC3)C(=O)N(C)[C@H](C(=O)N3CCOCC3)CC(=O)N(C)[C@@H](CC)C(=O)N[C@@H]([C@@H](C)CC)C(=O)N(C)CC(=O)N(C)[C@H]3C[C@@H](C)[C@@H](C)CN(C3=O)[C@@H](Cc3ccc(C(F)(F)F)cc3)C(=O)N(C)CC(=O)N[C@@H](CCc3ccc(C(F)(F)F)c(Cl)c3)C(=O)N2C1 [PP1359] | A (a compound having 10 or more and less than 20 is denoted as A) | B (a compound having 3 or more and less than 10 is denoted as B) | 3.2 nM
